# Reference: patent publication US20150328147A1, “METHOD FOR INTRODUCING BIOLOGICALLY ACTIVE SUBSTANCES INTO THE BRAIN” (BBU-VITA CORP., priority 2012, published 2015)
# Where two headings read alike, the source gives them in different places.
# Experiments:
# [1] = tested on: haloperidol catalepsy model
# From the text: The criteria of the evaluation: the change in spontaneous motor activity as the sum of movements of the rats in different groupings of the animals, in the “open field” test.
# [2] = tested on: haloperidol catalepsy model; conditions: for re-animation of spontaneous motor activity: nasal 2 × 50 μL after haloperidol i.p., dopamine 10^−2M (0.8 mg/kg), H2O2 10^−5M (34 ng/animal)
# [3] = tested on: haloperidol catalepsy model; conditions: earlier demonstration (DE 102 48 601); cited from earlier work
# [4] = tested on: haloperidol catalepsy model; remark: listed apart in the source
# From the text: The criteria of the evaluation: the change in spontaneous motor activity as the sum of movements of the rats in different groupings of the animals, in the “open field” test. The animal groups: control group: “intact control” (Group I), “haloperidol i.p.” (Group II), “haloperidol i.p.+nasal dopamine” (Group III), and “haloperidol i.p.+nasal L-arginine” in various concentrations (Groups IV and V).
# [5] = tested on: sexually mature white rats; test: Experiment 3: duration of phenobarbital sleep after single or fractionated nasal administration with H2O2; format: in vivo; conditions: phenobarbital 90 mg/kg, H2O2 10^−5M
# From the text: Experiment 3: The effect of phenobarbital was investigated experimentally on sexually mature white rats, using a nasal administration. The sleep duration conditioned by phenobarbital following nasal administration of phenobarbital was compared against the presence and absence of vaso-active and neuroactive substance. The typical results of an experiment are listed in Tab. 4.
# [6] = with nasal dopamine 10^−3M, haloperidol model
# [7] = Experiment 2, haloperidol i.p. 100 mg/kg, without L-arginine, nasal dopamine 10^−3M where given, sum of movements, open field
# [8] = Experiment 1, haloperidol i.p. 100 mg/kg, without H2O2, nasal dopamine 10^−3M where given, sum of movements, open field
smiles,measurement,setting,value
"OO [H2O2, hydrogen peroxide]",Spontaneous activity,"[1]; Experiment 1, haloperidol i.p., nasal H2O2 10^−4M (dopamine 10^−3M in the mixture)",1.8 ± 2.2 ^##)
same,Spontaneous activity,"[1]; Experiment 1, haloperidol i.p., nasal H2O2 10^−5M",3 ± 1.9 ^##)
same,minimal effective concentration of the endonasal hydrogen peroxide,[1]; [6],10^−8 to 10^−10 M
same,re-animation of spontaneous motor activity,[2],did not re-animate the motor activity
N=C(N)NCCC[C@H](N)C(=O)O [L-arginine],reanimation of spontaneous motor activity by L-arginine administered nasally together with dopamine,[3],able to reanimate spontaneous motor activity
same,Spontaneous activity,"[4]; Experiment 2, haloperidol i.p., nasal L-arginine 10^−3M (dopamine 10^−3M in the mixture)",6.4 ± 3.4 ^##)
same,Spontaneous activity,"[4]; Experiment 2, haloperidol i.p., nasal L-arginine 10^−5M",4.8 ± 2.7 ^##)
same,minimal effective concentration of the endonasal L-arginine,[4]; [6],~10^−7 M
NCCc1ccc(O)c(O)c1 [dopamine],Spontaneous activity,[4]; [7],2.6 ± 1.7 ^##)
same,Spontaneous activity,[1]; [8],2 ± 1.7 ^##)
same,re-animation of spontaneous motor activity,[2],did not re-animate the motor activity
O=C(CCCN1CCC(O)(c2ccc(Cl)cc2)CC1)c1ccc(F)cc1 [haloperidol],Spontaneous activity,[4]; [7],3.7 ± 3 ^##)
same,Spontaneous activity,[1]; [8],3 ± 3 ^##)
same,reduction of spontaneous motor activity,"[2]; single i.p. haloperidol 0.25 mg/kg, cataleptic response",85%
CCC1(c2ccccc2)C(=O)NC(=O)NC1=O [phenobarbital],Duration of the experimental sleep (Minutes following the last administration),"[5]; single nasal application of the full dose 18 mg, 2 × 100 μL",128 ± 11.1 min
same,Duration of the experimental sleep (Minutes following the last administration),"[5]; triple nasal application of partial doses 3 × 6 (mg), interval 60 s",161 ± 21.1 min
